The test system of this assay is MV-4-11 cells. Briefly: Gene expression microarray analysis (Affymetrix PrimeView) and GSEA. Conditions: MV-4-11 cells, 48 hours. The arrangement: RFU PODN (11730768_x_at) / Fold change /veh PODN (11730768_x_at) / RFU LINC00158 (11744669_a_at) / Fold change /veh LINC00158 (11744669_a_at) / RFU DUSP10 (11751237_a_at) / Fold change /veh DUSP10 (11751237_a_at) / RFU ID3 (11757404_x_at) / Fold change /veh ID3 (11757404_x_at) / RFU PLEKHG5 (11737974_s_at) / Fold change /veh PLEKHG5 (11737974_s_at) / RFU LRRC4B (11730491_at) / Fold change /veh LRRC4B (11730491_at) / RFU GIMAP4 (11747438_a_at) / Fold change /veh GIMAP4 (11747438_a_at) / RFU KRT8 (11758183_x_at) / Fold change /veh KRT8 (11758183_x_at) / RFU CNN1 (11734310_a_at) / Fold change /veh CNN1 (11734310_a_at) / RFU VPS37D (11726825_at) / Fold change /veh VPS37D (11726825_at) / RFU C10orf10 (11716522_x_at) / Fold change /veh C10orf10 (11716522_x_at) / RFU KIR2DL2 /// KIR2DL4 /// KIR2DL5A /// KIR2DL5B /// KIR2DS1 /// KIR2DS2 /// KIR2DS3 /// KIR2DS4 /// KIR3DL3 /// KIR3DL3 /// KIR3DS1 (11738374_at) / Fold change /veh KIR2DL2 /// KIR2DL4 /// KIR2DL5A /// KIR2DL5B /// KIR2DS1 /// KIR2DS2 /// KIR2DS3 /// KIR2DS4 /// KIR3DL3 /// KIR3DL3 /// KIR3DS1 (11738374_at) / RFU C1QL1 (11718748_at) / Fold change /veh C1QL1 (11718748_at) / RFU TMPRSS4 (11747572_a_at) / Fold change /veh TMPRSS4 (11747572_a_at) / RFU HAMP (11756126_x_at) / Fold change /veh HAMP (11756126_x_at) / RFU RNFT2 (11725882_a_at) / Fold change /veh RNFT2 (11725882_a_at) / RFU NR4A2 (11747474_a_at) / Fold change /veh NR4A2 (11747474_a_at) / RFU ABCC12 (11746883_a_at) / Fold change /veh ABCC12 (11746883_a_at) / RFU TMEM136 (11760407_x_at) / Fold change /veh TMEM136 (11760407_x_at) / RFU CLDN22 /// WWC2 (11732394_at) / Fold change /veh CLDN22 /// WWC2 (11732394_at) / RFU HLA-DPB1 (11760878_x_at) / Fold change /veh HLA-DPB1 (11760878_x_at) / RFU SPINT1 (11716480_a_at) / Fold change /veh SPINT1 (11716480_a_at) / RFU GAP43 (11754022_s_at) / Fold change /veh GAP43 (11754022_s_at) / RFU A4GNT (11735810_at) / Fold change /veh A4GNT (11735810_at) / RFU PRB3 (11715151_x_at) / Fold change /veh PRB3 (11715151_x_at) / RFU TUBB4B (11761932_at) / Fold change /veh TUBB4B (11761932_at) / RFU CAPN14 (11732068_a_at) / Fold change /veh CAPN14 (11732068_a_at) / RFU TMCC2 (11721928_a_at) / Fold change /veh TMCC2 (11721928_a_at) / RFU IRGQ (11745062_a_at) / Fold change /veh IRGQ (11745062_a_at) / RFU FAM174B (11720279_a_at) / Fold change /veh FAM174B (11720279_a_at) / RFU TMPRSS4 (11748680_a_at) / Fold change /veh TMPRSS4 (11748680_a_at) / RFU FAM212B (11763350_a_at) / Fold change /veh FAM212B (11763350_a_at) / RFU PLEKHG5 (11743358_a_at) / Fold change /veh PLEKHG5 (11743358_a_at) / RFU ZSCAN30 (11745921_a_at) / Fold change /veh ZSCAN30 (11745921_a_at) / RFU CMKLR1 (11741424_a_at) / Fold change /veh CMKLR1 (11741424_a_at) / RFU LOC101060620 /// MAPK8IP1 (11723275_at) / Fold change /veh LOC101060620 /// MAPK8IP1 (11723275_at) / RFU SPTSSB (11747773_x_at) / Fold change /veh SPTSSB (11747773_x_at) / RFU PRSS12 (11739890_at) / Fold change /veh PRSS12 (11739890_at) / RFU BIN1 (11741810_x_at) / Fold change /veh BIN1 (11741810_x_at) / RFU WNT11 (11732464_a_at) / Fold change /veh WNT11 (11732464_a_at) / RFU C10orf10 (11716521_a_at) / Fold change /veh C10orf10 (11716521_a_at) / RFU C5orf56 (11738089_at) / Fold change /veh C5orf56 (11738089_at) / RFU CYB561 (11721691_x_at) / Fold change /veh CYB561 (11721691_x_at) / RFU ANKRD19P (11752326_a_at) / Fold change /veh ANKRD19P (11752326_a_at) / RFU OR2T12 /// OR2T33 /// OR2T8 (11738714_s_at) / Fold change /veh OR2T12 /// OR2T33 /// OR2T8 (11738714_s_at) / RFU VCAN (11748164_a_at) / Fold change /veh VCAN (11748164_a_at) / RFU JSRP1 (11732532_at) / Fold change /veh JSRP1 (11732532_at) / RFU KRTAP10-11 (11738290_x_at) / Fold change /veh KRTAP10-11 (11738290_x_at) / RFU MYO3A (11730013_a_at) / Fold change /veh MYO3A (11730013_a_at) / RFU EBF3 (11725865_a_at) / Fold change /veh EBF3 (11725865_a_at) / RFU CAMK2N1 (11719241_x_at) / Fold change /veh CAMK2N1 (11719241_x_at) / RFU C5orf56 (11738088_a_at) / Fold change /veh C5orf56 (11738088_a_at) / RFU OLFML3 (11715873_a_at) / Fold change /veh OLFML3 (11715873_a_at) / RFU LOC100653217 /// NTM (11731650_a_at) / Fold change /veh LOC100653217 /// NTM (11731650_a_at) / RFU MAPK11 (11762145_a_at) / Fold change /veh MAPK11 (11762145_a_at) / RFU FIZ1 (11724087_x_at) / Fold change /veh FIZ1 (11724087_x_at) / RFU OASL (11726364_x_at) / Fold change /veh OASL (11726364_x_at) / RFU SOX15 (11748057_x_at) / Fold change /veh SOX15 (11748057_x_at) / RFU CD79A (11719716_a_at) / Fold change /veh CD79A (11719716_a_at) / RFU HIST1H1D (11736915_at) / Fold change /veh HIST1H1D (11736915_at) / RFU CASKIN2 (11723855_a_at) / Fold change /veh CASKIN2 (11723855_a_at) / RFU LOC730098 (11760151_x_at) / Fold change /veh LOC730098 (11760151_x_at) / RFU OR4N2 (11742367_at) / Fold change /veh OR4N2 (11742367_at) / RFU PRRT2 (11749266_a_at) / Fold change /veh PRRT2 (11749266_a_at) / RFU SNX32 (11753110_a_at) / Fold change /veh SNX32 (11753110_a_at) / RFU CDHR5 (11726645_a_at) / Fold change /veh CDHR5 (11726645_a_at) / RFU RCAN1 (11760418_a_at) / Fold change /veh RCAN1 (11760418_a_at) / RFU FAM167A (11723789_a_at) / Fold change /veh FAM167A (11723789_a_at) / RFU FAM26E (11764081_at) / Fold change /veh FAM26E (11764081_at) / RFU ISYNA1 (11749810_s_at) / Fold change /veh ISYNA1 (11749810_s_at) / RFU ACY1 (11761880_at) / Fold change /veh ACY1 (11761880_at) / RFU 11764098_at / Fold change /veh 11764098_at / RFU SAMD14 (11745864_x_at) / Fold change /veh SAMD14 (11745864_x_at) / RFU NPB (11741838_a_at) / Fold change /veh NPB (11741838_a_at) / RFU TMPRSS6 (11731388_a_at) / Fold change /veh TMPRSS6 (11731388_a_at) / RFU KRTAP10-2 (11738614_at) / Fold change /veh KRTAP10-2 (11738614_at) / RFU ARHGAP8 /// PRR5-ARHGAP8 (11727945_x_at) / Fold change /veh ARHGAP8 /// PRR5-ARHGAP8 (11727945_x_at) / RFU KRTAP5-7 /// NADSYN1 (11734609_at) / Fold change /veh KRTAP5-7 /// NADSYN1 (11734609_at) / RFU RASL12 (11751679_a_at) / Fold change /veh RASL12 (11751679_a_at) / RFU CDKN2B (11736163_a_at) / Fold change /veh CDKN2B (11736163_a_at) / RFU PRF1 (11729649_at) / Fold change /veh PRF1 (11729649_at) / RFU, ZNF638 /// ZNF638-IT1 / Fold change vs veh, ZNF638 /// ZNF638-IT1 / RFU, PANK3 / Fold change vs veh, PANK3 / RFU, SH3YL1 / Fold change vs veh, SH3YL1 / RFU, ZEB2 / Fold change vs veh, ZEB2 / RFU, NRIP1 / Fold change vs veh, NRIP1 / RFU, PTTG1IP / Fold change vs veh, PTTG1IP / RFU, CAPN2 / Fold change vs veh, CAPN2 / RFU, MED14 / Fold change vs veh, MED14 / RFU, SNORA58 / Fold change vs veh, SNORA58 / RFU, C1orf63 / Fold change vs veh, C1orf63 / RFU, LRRFIP1 / Fold change vs veh, LRRFIP1 / RFU, NDUFAF7 / Fold change vs veh, NDUFAF7 / RFU, SLC12A2 / Fold change vs veh, SLC12A2 / RFU, IBTK / Fold change vs veh, IBTK / RFU, ESF1 / Fold change vs veh, ESF1 / Fold change vs veh, TMEM50B / RFU, TAOK1 / Fold change vs veh, TAOK1 / RFU, ACBD3 / Fold change vs veh, ACBD3 / RFU, TMA16 / Fold change vs veh, TMA16 / RFU, RWDD3 / Fold change vs veh, RWDD3 / RFU, BCAT1 / Fold change vs veh, BCAT1 / RFU, EDEM3 / Fold change vs veh, EDEM3 / RFU, TMEM33 / Fold change vs veh, TMEM33 / RFU, WDR75 / Fold change vs veh, WDR75 / RFU, AHCTF1 / Fold change vs veh, AHCTF1 / RFU, TFRC / Fold change vs veh, TFRC / RFU, ZDHHC17 / Fold change vs veh, ZDHHC17 / RFU, NOM1 / Fold change vs veh, NOM1 / RFU, ARL8B / Fold change vs veh, ARL8B / RFU, ZBTB11 / Fold change vs veh, ZBTB11 / RFU, TAMM41 / Fold change vs veh, TAMM41 / RFU, KIAA1704 /// LOC100996395 / Fold change vs veh, KIAA1704 /// LOC100996395 / RFU, ING1 / Fold change vs veh, ING1 / RFU, TRMT61B / Fold change vs veh, TRMT61B / RFU, FUBP3 / Fold change vs veh, FUBP3 / RFU, TP53 / Fold change vs veh, TP53 / RFU, TNKS2 / Fold change vs veh, TNKS2 / RFU, ZFP14 / Fold change vs veh, ZFP14 / RFU, ACTR2 / Fold change vs veh, ACTR2 / RFU, PPP3R1 / Fold change vs veh, PPP3R1 / RFU, PIK3R1 / Fold change vs veh, PIK3R1 / RFU, HNRNPA1 / Fold change vs veh, HNRNPA1 / RFU, RNF170 / Fold change vs veh, RNF170 / RFU, ZNF28 / Fold change vs veh, ZNF28 / RFU, RNGTT / Fold change vs veh, RNGTT / RFU, OGT / Fold change vs veh, OGT / RFU, BRD1 / Fold change vs veh, BRD1 / RFU, MARS / Fold change vs veh, MARS / RFU, ZNF655 / Fold change vs veh, ZNF655 / RFU, FAHD1 / Fold change vs veh, FAHD1 / RFU, BDP1 / Fold change vs veh, BDP1 / RFU, LRRCC1 / Fold change vs veh, LRRCC1 / RFU, ARID1A / Fold change vs veh, ARID1A / RFU, ZNF146 / Fold change vs veh, ZNF146 / RFU, ZNF330 / Fold change vs veh, ZNF330 / RFU, GPN3 / Fold change vs veh, GPN3 / RFU, C9orf123 / Fold change vs veh, C9orf123 / RFU, N4BP2L2 / Fold change vs veh, N4BP2L2 / RFU, ARFIP1 / Fold change vs veh, ARFIP1 / RFU, FAM179B / Fold change vs veh, FAM179B / RFU, BCL10 / Fold change vs veh, BCL10 / RFU, UHRF1BP1L / Fold change vs veh, UHRF1BP1L / RFU, BET1 / Fold change vs veh, BET1 / RFU, CNOT2 / Fold change vs veh, CNOT2 / RFU, ZNF268 / Fold change vs veh, ZNF268 / Fold change vs veh, ZNF507 / RFU, DGCR2 / Fold change vs veh, DGCR2 / RFU, WDSUB1 / Fold change vs veh, WDSUB1 / Fold change vs veh, HSP90B1 /// MIR3652 / RFU, ADSS / Fold change vs veh, ADSS / RFU, GK / Fold change vs veh, GK / RFU, ZNF148 / Fold change vs veh, ZNF148 / RFU, TAF9 / Fold change vs veh, TAF9 / RFU, SLC1A5 / Fold change vs veh, SLC1A5 / RFU, SLMO2 / Fold change vs veh, SLMO2 / RFU, ABCC4 / Fold change vs veh, ABCC4 / RFU, LOC101060439 /// RAP1B / Fold change vs veh, LOC101060439 /// RAP1B / RFU, RFX7 / Fold change vs veh, RFX7 / RFU, GTPBP10 / Fold change vs veh, GTPBP10 / RFU, CNEP1R1 / Fold change vs veh, CNEP1R1 / RFU, BIVM-ERCC5 /// ERCC5 / Fold change vs veh, BIVM-ERCC5 /// ERCC5 / RFU, ILF3 / Fold change vs veh, ILF3 / RFU 11762660_at / Fold change /veh 11762660_at / RFU VCAN (11757783_s_at) / Fold change /veh VCAN (11757783_s_at) / RFU DDX43 (11728927_at) / Fold change /veh DDX43 (11728927_at) / RFU KRT8 (11758188_x_at) / Fold change /veh KRT8 (11758188_x_at) / RFU NKD1 (11759106_at) / Fold change /veh NKD1 (11759106_at) / RFU SRD5A1 (11742802_a_at) / Fold change /veh SRD5A1 (11742802_a_at) / RFU TPSAB1 /// TPSB2 (11721975_s_at) / Fold change /veh TPSAB1 /// TPSB2 (11721975_s_at) / RFU GSTM3 (11746129_a_at) / Fold change /veh GSTM3 (11746129_a_at) / RFU IL23R (11737362_x_at) / Fold change /veh IL23R (11737362_x_at) / RFU TMEM51 (11727254_a_at) / Fold change /veh TMEM51 (11727254_a_at) / RFU PIWIL2 (11732686_x_at) / Fold change /veh PIWIL2 (11732686_x_at) / RFU ORM1 (11744905_x_at) / Fold change /veh ORM1 (11744905_x_at) / RFU CCDC152 (11743942_at) / Fold change /veh CCDC152 (11743942_at) / RFU ECM1 (11717891_a_at) / Fold change /veh ECM1 (11717891_a_at) / RFU IL23R (11748794_a_at) / Fold change /veh IL23R (11748794_a_at) / RFU TNFAIP8L3 (11732012_x_at) / Fold change /veh TNFAIP8L3 (11732012_x_at) / RFU MBOAT4 (11741988_at) / Fold change /veh MBOAT4 (11741988_at) / RFU 11764193_at / Fold change /veh 11764193_at / RFU TMEM53 (11763286_at) / Fold change /veh TMEM53 (11763286_at) / RFU MAGEB2 (11727129_at) / Fold change /veh MAGEB2 (11727129_at) / RFU TMEM200A (11744735_a_at) / Fold change /veh TMEM200A (11744735_a_at) / RFU CCDC152 (11751479_a_at) / Fold change /veh CCDC152 (11751479_a_at) / RFU FAM211A (11726209_a_at) / Fold change /veh FAM211A (11726209_a_at) / RFU RGS16 (11746705_a_at) / Fold change /veh RGS16 (11746705_a_at) / RFU VCAN (11755009_s_at) / Fold change /veh VCAN (11755009_s_at) / RFU RHOB (11743442_s_at) / Fold change /veh RHOB (11743442_s_at) / RFU RGS16 (11720943_a_at) / Fold change /veh RGS16 (11720943_a_at) / RFU RGS16 (11720944_at) / Fold change /veh RGS16 (11720944_at) / RFU, VPS4B / Fold change vs veh, VPS4B / RFU, CREB1 / Fold change vs veh, CREB1 / RFU, DNAJC13 / Fold change vs veh, DNAJC13 / RFU, GNAQ / Fold change vs veh, GNAQ / RFU, CDK5R1 / Fold change vs veh, CDK5R1 / RFU, ZRANB3 / Fold change vs veh, ZRANB3 / RFU, CUL4A / Fold change vs veh, CUL4A / RFU, CCNY / Fold change vs veh, CCNY / RFU, UFL1 / Fold change vs veh, UFL1 / RFU, COG3 / Fold change vs veh, COG3 / RFU, DIAPH2 / Fold change vs veh, DIAPH2 / RFU, SKA2 / Fold change vs veh, SKA2 / RFU, AFF3 / Fold change vs veh, AFF3 / RFU, LMF1 / Fold change vs veh, LMF1 / RFU, IPO11 / Fold change vs veh, IPO11 / RFU, DFFB / Fold change vs veh, DFFB / RFU, FOXP1 / Fold change vs veh, FOXP1 / RFU, CARD8 / Fold change vs veh, CARD8 / RFU, STRN3 / Fold change vs veh, STRN3 / RFU, ADK / Fold change vs veh, ADK / RFU, RASSF2 / Fold change vs veh, RASSF2 / RFU, WIPF1 / Fold change vs veh, WIPF1 / RFU, LARP1B / Fold change vs veh, LARP1B / RFU, RASA1 / Fold change vs veh, RASA1 / RFU, RB1 / Fold change vs veh, RB1 / RFU, PPFIA1 / Fold change vs veh, PPFIA1 / RFU, MAT2A / Fold change vs veh, MAT2A / RFU, CCT5 / Fold change vs veh, CCT5 / RFU, WDR92 / Fold change vs veh, WDR92 / RFU, CUX1 / Fold change vs veh, CUX1 / RFU, TTC7A / Fold change vs veh, TTC7A / RFU, TMEM135 / Fold change vs veh, TMEM135 / RFU, DEPTOR / Fold change vs veh, DEPTOR / RFU, CPM / Fold change vs veh, CPM / RFU, DNAJB6 / Fold change vs veh, DNAJB6 / RFU, CACNA2D3 / Fold change vs veh, CACNA2D3 / RFU, DTX4 / Fold change vs veh, DTX4 / RFU, TFCP2 / Fold change vs veh, TFCP2 / RFU, GMCL1 /// GMCL1P1 / Fold change vs veh, GMCL1 /// GMCL1P1 / RFU, AEBP2 / Fold change vs veh, AEBP2 / RFU, SNHG1 /// SNORD22 /// SNORD25 /// SNORD26 /// SNORD27 /// SNORD28 /// SNORD29 /// SNORD31 / Fold change vs veh, SNHG1 /// SNORD22 /// SNORD25 /// SNORD26 /// SNORD27 /// SNORD28 /// SNORD29 /// SNORD31 / Fold change (Aza/veh), C12orf56 (ProbeSet 11735607_a_at) / Fold change (ACY-1035/veh), C12orf56 (ProbeSet 11735607_a_at) / Fold change (Aza/veh), FGFR1OP (ProbeSet 11751329_s_at) / Fold change (ACY-1035/veh), FGFR1OP (ProbeSet 11751329_s_at) / Fold change (Aza/veh), VPS36 (ProbeSet 11739960_a_at) / Fold change (ACY-1035/veh), VPS36 (ProbeSet 11739960_a_at) / RFU SYPL1 (11715823_x_at) / Fold change /veh SYPL1 (11715823_x_at) / RFU IGFBP7 (11715501_s_at) / Fold change /veh IGFBP7 (11715501_s_at) / RFU REEP3 (11722064_at) / Fold change /veh REEP3 (11722064_at) / RFU IGLL1 (11728026_x_at) / Fold change /veh IGLL1 (11728026_x_at): dose or concentration left out as unconfirmed. It counts as cell-based, human.

This note sets out measurements from article PMC5218480 (PLoS ONE, 2017).

As to `Nc1ncn([C@@H]2O[C@H](CO)[C@@H](O)[C@H]2O)c(=O)n1` [azacitidine], the “Fold change /veh MAPK11 (11762145_a_at)” value is reported as 1.03.
